# Laboratory results from patent US20150250911A1, “MALODOR COUNTERACTING COMPOSITIONS” (GIVAUDAN, S.A., priority 2012, published 2015).
# Columns and labels:
# [1] = Sensory tests of compounds of formula (I) against 4 malodour compounds; design: species or system human; key: ++++: no malodour present/strong reduction in malodour; +++: medium reduction in malodour; ++: weak malodour reduction; +: no change from control; ◯: worse than control; details: reference malodour sample scored +
# Protocol: (§1) Sensory studies were performed in 120 ml Beetson jar. The test compounds were prepared in DEP (=Diethylphtalate) and pipetted onto a desized woven cotton piece of cloth placed at the bottom of a jar. Where two or more compounds were tested in the same jar, they were applied to separate areas of the cotton cloth. Prior the first assessment and between assessments, the jars were incubated at room temperature for one hour so that the headspace did reach equilibrium.
# The same procedures as described in Example 5 have been followed.
# The compounds of formula (I) were assessed by the trained volunteers against 4 malodour compounds, namely isovaleric acid, dimethyl disulfide, 2-methyl-3-mercaptobutan-1-ol, and 3-hydroxy-3-methyl hexanoic acid.
# For the sensory test, participants were given the reference malodour sample and were told that this scored+on a scale as indicated below. They were then asked to assess and score the test jars in the specified sequence, with a 20 second gap between jars. The jars were given to the assessors blind in random permutations, with each volunteer smelling all permutations in duplicate.
# The following score scale was used:
# ++++: no malodour present/strong reduction in malodour +++: medium reduction in malodour ++: weak malodour reduction +: no change from control ◯: worse than control
# [2] = Sensory study in jars: malodour score by trained volunteers, IVA malodour; design: species or system human; details: 0-5 scale (4 = no change from control); IVA (50 ul @ 0.06%) and 200 ul ORIVOL @0.1%
# Protocol: as §1
# (§2) Sensory studies were performed following the procedure described in Example 5. For the sensory test, participants were given a reference malodour sample (comprising the same ingredients as the jars with the maldodour) and were told that this scored 4 on a 0-5 scale. They were then asked to assess and score three test jars on a 0-5 scale in the specified sequence, with a 20 second gap between jars. The jars were given to the assessors blind in random permutations, with each volunteer smelling all three permutations in duplicate.
# (§3) 0: no malodour present 1: strong reduction in malodour 2 medium reduction in malodour 3: weak malodour reduction 4: no change from control 5: worse than control
# (§4) Approx. 20 trained volunteers did participate in each study twice.
# [3] = Sensory study in jars: malodour score by trained volunteers, DMDS malodour; design: species or system human; details: for Malodour Score (arith. means): 0-5 scale (4 = no change from control)
# Protocol: as §1
# as §2, with “For” for “Sensory studies were performed following the procedure described in Example 5. For”, “the jar” for “the jars”, “the malodour)” for “the maldodour)”
# as §3, §4
# [4] = Sensory study in jars: malodour score by trained volunteers, MO malodour; design: species or system human
# Protocol: as §1, §2, §3, §4
# [5] = Sensory study in jars: malodour score by trained volunteers, HMHA malodour; design: species or system human; details: 0-5 scale (4 = no change from control); HMHA (50 ul @ 0.01%) and 200 ul ORIVOL @ 0.1%
# Protocol: as §1, §2, §3, §4
SMILES,Sensory score [1],other results
"CC(CO)CC1CCCC(C(C)(C)C)C1 (stereo not shown) [Compound 5.3, 3-(3-tert-butylcyclohexyl)-2-methylpropan-1-ol]",++++,
"CC(C)C1CCCC(C(C)C(C)CO)C1 (stereo not shown) [Compound 5.2, 3-(3-isopropylcyclohexyl)-2-methylbutan-1-ol]",++++,
OC1CCC(C2CCCCC2)CC1 (stereo not shown) [Compound 5.7],+++,
"CC(C)CC1CCC(CC(C)CO)CC1 (stereo not shown) [Compound 5.6, 3-(4-isobutylcyclohexyl)-2-methylpropan-1-ol]",+++,
"CCC(C)(C)C1CCC(O)CC1 (stereo not shown) [ORIVOL, 4-(tert-pentyl)cyclohexanol]",,"Malodour Score (arith. means) [2]: 2.733; Malodour Score (arith. means) ([3]; DMDS 50 ul @ 0.5% and 200 ul ORIVOL @0.1%): 2.862; Malodour Score (arith. means) ([3]; DMDS (50 ul @ 0.06%) and 200 ul ORIVOL): 0.91; Malodour Score (arith. means) ([3]; DMDS (50 ul @ 0.5%) and 200 ul ORIVOL): 1.46; reduction on malodour perceivable by the human nose compared to the malodour taken alone ([3]; DMDS, Table 1, even at very low concentrations): significant reduction; Malodour Score (arith. means) ([4]; 0-5 scale (4 = no change from control), MO (50 ul @ 0.005%) and 200 ul ORIVOL @ 0.1%): 2.375; reduction on malodour perceivable by the human nose compared to the malodour taken alone ([4]; MO, IVA and HMHA, Table 2): significant reduction; Malodour Score (arith. means) [5]: 2.194"
OC1CCCCCCCCCCCC1 [Compound 5.10],++++,
CCC(C)(C)C1CCC(O)CC1 (stereo not shown) [Compound 5.4],++++,
CC(CO)CC1CCC(C(C)C)CC1 (stereo not shown) [Compound 5.1],++++,
OC1CCCCCCCCCCCCCC1 [Compound 5.12],++++,
OC1CCCCCCCCCC1 [Compound 5.9],+++,
CC1(O)CCCCCCCCCCCC1 [Compound 5.11],++++,
OC1CCCCCCCCCCC1 [Compound 5.5],+++,
